Columns and labels:
Format in all cases: cell-based, hepatitis B virus
HBV [1] = assay: Therapeutic effect in high copy replication model HepAD38; conditions: 5 μM
Excerpt: HepAD38 is a hepatoma cell line (D genotype) that stably integrates the HBV genome, it expresses HBV under conditions that may be regulated with tetracycline. […] The HepAD38 has a DNA level about 10 times that of HepG2.2.15, and thus is a high-copy HBV in vitro replication cell model (for the construction method of this cell model, please refer to: Ladner S K, Otto M J, Barker C S, et al. Inducible expression of human hepatitis B virus (HBV) in stably transfected hepatoblastoma cells: a novel system for screening potential inhibitors of HBV replication. Antimicrob Agents Chemother. 1997; 41(8):1715-1720.).
This experiment was carried out in a 24-well culture plate. […] About 4×10^5HepAD38 cells were plated in each well, 500 μL of medium G containing tetracycline hydrochloride (Tetracycline) was added to each well, Day 0 was set 48 h after the cells were plated, and the medium G containing tetracycline hydrochloride (Tetracycline) was removed at the same time, fresh drug-containing medium F was used for replacement, and then fresh drug-containing medium F was used for replacement every two days until the 8th day, and the levels of HBsAg in the cell supernatant and intracellular HBV DNA were detected on the 8th day. For the method for detection, please refer to Example 1.

HBV [2] = assay: Therapeutic effect on human primary hepatocytes infected by HBV (drug from day 8 after infection); conditions: drug added 8 days after infection
Procedure: The drug to be tested and the positive control drug were diluted with medium H to the required concentrations, and to the blank group the same volume of medium H without drug was added.
Primary hepatocytes were isolated from humanized mice transplanted with primary human hepatocytes through perfusion technique, directly cultured in 24-well plates after counting (5×10^5 primary hepatocytes per well), and medium H was added to maintain hepatocyte morphology. Infection with HBV was performed 24 hours after culturing, the amount of HBV for infection in each well was 2000 MOI. Before infection, HBV was first dissolved in medium I to obtain HBV solution, and the infection volume was 250 μL/well. During infection, the cell supernatant was first removed by suction, the HBV solution was added to the cells, the cells were incubated for 24 hours, then the supernatant was collected as the sample of Day 0, and then the supernatant was collected every two days for detection, fresh medium H was used for replacement. On the 8th day, fresh drug-containing medium H was used for replacement to start the drug treatment, until the 14th day, all the supernatant and the cells were collected for relevant detection. The detection items included: HBsAg, HBeAg, HBV DNA, HBV cccDNA, and for the detection method, please refer to Example 1.

HBV cccDNA = assay: Southern blot detection of HBV cccDNA in HepAD38; conditions: 5 μM, 8 days, inhibitory effect inferior to that of control group (ETV 5 μM)
Procedure: The Southern blot experiment was performed on 6 cm^2 culture plates. About 4.2×10^6 HepAD38 cells were plated in each 6 cm^2 culture plate, and medium G containing tetracycline hydrochloride (Tetracycline) was added. During the experiment, the medium G containing tetracycline hydrochloride was removed, and the drug-containing medium F was added at the same time for drug treatment, in which the treatment concentration of test drug Palovarotene was 5 μM, and the control group used Entecavir (ETV) at a concentration of 5 μM for treatment, and the treatment time was 8 days.
The specific Southern blot detection method was carried out with reference to Example 3.

HBV [3] = assay: Inhibitory effect on HBV infection in infection model HepaRG M14A (drug before infection); conditions: 1, 5, 25 μM, treatment before infection
Procedure: HepaRG was a hepatic progenitor cell line with differentiation potential which was isolated from the tumor tissue of a hepatitis C patient. After two weeks of cell plating, the cellular differentiation was induced with 2% DMSO (2 mL of DMSO was added to per 100 mL of cell culture medium) for two weeks. Finally, about 50% of the cells differentiated into hepatocyte-like cells, and the other 50% of the cells differentiated into cholangiocyte-like cells. Among them, hepatocyte-like cells supported HBV infection with an infection efficiency of about 20%. Through genetic modification of HepaRG, the HNF4A and FoxM1 genes were integrated into HepaRG cells, and a HepaRG M14A cell line that could complete differentiation and support HBV infection independent of DMSO was obtained by screening. (For the construction method of this cell model, please refer to: Zhao Jinghua. Development, Optimization and Preliminary Application of in vitro models supporting HBV Infection [D]. Xiamen University, 2016.)
This experiment was carried out in a 24-well cell culture plate. […] About 1.5×10^5 HepaRG M14A cells were plated in each well, and 500 μL of medium D was added to each well. After cell plating, medium D was replaced every 2 days. After 13 days of cell plating, medium D was replaced with drug-containing medium D for drug treatment. After 24 hours of drug treatment, the cells were infected with HBV, and the amount of HBV for infection in each well was 1000 MOI. Before infection, an HBV solution was obtained by diluting HBV in medium E, and the infection volume was 250 μL per well. During infection, the cell supernatant was first removed by suction, the HBV solution was added to the cells, then the cells were incubated for 24 hours, and then the supernatant was collected as the sample of Day 0. Then, the cells were washed three times with PBS warmed in bath at 37° C., and fresh drug-containing medium D (500 μL per well) was used for replacement, then the supernatant was collected every 2 days for detection, and fresh drug-containing medium D was used for replacement, until the 8th day, all the supernatant and cells were collected for related detection. The detection items include HBsAg, HBeAg, HBV DNA, HBV cccDNA, and for the detection method, please refer to Example 1.

[4] = to day 14, p<0.05, more obvious at 5 μM and 25 μM

CC1(C)CCC(C)(C)c2cc(Cn3cccn3)c(/C=C/c3ccc(C(=O)O)cc3)cc21 [Palovarotene]
surface antigen production (HBsAg in cell supernatant) (HBV [1]; day 8, p<0.01): significant inhibitory effect
HBV DNA (intracellular) (HBV [1]; day 8, p<0.05): significant inhibitory effect
HBV cccDNA (HBV [2]; to day 14, 25 μM, p<0.01): significant inhibitory effects
HBV DNA (HBV [2]; to day 14, 25 μM, p<0.05): significant inhibitory effects
level of HBeAg in the cell supernatant (HBV [2]; [4]): significantly inhibited
level of HBsAg in the cell supernatant (HBV [2]; [4]): significantly inhibited
level of HBV cccDNA (Southern blot) (HBV cccDNA): significantly inhibit
level of intracellular HBV DNA (HBV [3]; to day 8, p<0.0001): significantly reduce
level of intracellular cccDNA (HBV [3]; to day 8, p<0.0001): significantly reduce
level of HBeAg in cell supernatant (HBV [3]; to day 8, p<0.05): significantly reduce
level of HBsAg in cell supernatant (HBV [3]; to day 8, p<0.05): significantly reduce

— patent publication US12569468B2, “Use of palovarotene in treatment against HBV virus” (YANG SHENG TANG COMPANY, LTD., priority 2020, dated 2026)
